According to PubChem BioAssay (NCI):
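Following 48 hours of exposure in 96-well plates, responses at five concentrations were used to interpolate endpoints linearly. GI50 marks 50% less growth. TGI: total growth inhibition.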

Experiments:
Experiment in all cases: NCI anticancer screen, dose series, 48 h
HS 578T breast = tested on: HS 578T breast
A498 renal = tested on: A498 renal
NCI/ADR-RES ovarian = tested on: NCI/ADR-RES ovarian
TK-10 renal = tested on: TK-10 renal
SW-620 colon = tested on: SW-620 colon
HOP-92 NSCLC = tested on: HOP-92 NSCLC
CAKI-1 renal = tested on: CAKI-1 renal
SNB-19 CNS = tested on: SNB-19 CNS
SN12C renal = tested on: SN12C renal
UACC-62 melanoma = tested on: UACC-62 melanoma
ACHN renal = tested on: ACHN renal
HCT-116 colon = tested on: HCT-116 colon
IGROV1 ovarian = tested on: IGROV1 ovarian
CCRF-CEM leukemia = tested on: CCRF-CEM leukemia
MCF7 breast = tested on: MCF7 breast
HT29 colon = tested on: HT29 colon
786-0 renal = tested on: 786-0 renal
M14 melanoma = tested on: M14 melanoma
SK-MEL-5 melanoma = tested on: SK-MEL-5 melanoma
SK-OV-3 ovarian = tested on: SK-OV-3 ovarian
SR leukemia = tested on: SR leukemia
MALME-3M melanoma = tested on: MALME-3M melanoma
NCI-H460 lung = tested on: NCI-H460 lung
SNB-75 CNS = tested on: SNB-75 CNS
DU-145 prostate = tested on: DU-145 prostate
SF-539 CNS = tested on: SF-539 CNS
HL-60(TB) leukemia = tested on: HL-60(TB) leukemia
SK-MEL-2 melanoma = tested on: SK-MEL-2 melanoma
MDA-MB-435 = tested on: MDA-MB-435
NCI-H23 lung = tested on: NCI-H23 lung
OVCAR-3 ovarian = tested on: OVCAR-3 ovarian
SK-MEL-28 melanoma = tested on: SK-MEL-28 melanoma
PC-3 prostate = tested on: PC-3 prostate
OVCAR-8 ovarian = tested on: OVCAR-8 ovarian
RXF 393 renal = tested on: RXF 393 renal
KM12 colon = tested on: KM12 colon
BT-549 breast = tested on: BT-549 breast
UACC-257 melanoma = tested on: UACC-257 melanoma
MDA-MB-231 breast = tested on: MDA-MB-231 breast
T-47D breast = tested on: T-47D breast
LOX IMVI melanoma = tested on: LOX IMVI melanoma
HCT-15 colon = tested on: HCT-15 colon
HCC-2998 colon = tested on: HCC-2998 colon
UO-31 renal = tested on: UO-31 renal
K-562 leukemia = tested on: K-562 leukemia
U251 CNS = tested on: U251 CNS
MOLT-4 leukemia = tested on: MOLT-4 leukemia
SF-295 CNS = tested on: SF-295 CNS
RPMI-8226 leukemia = tested on: RPMI-8226 leukemia
HOP-62 NSCLC = tested on: HOP-62 NSCLC
NCI-H226 lung = tested on: NCI-H226 lung
A549 NSCLC = tested on: A549 NSCLC
NCI-H522 lung = tested on: NCI-H522 lung
SF-268 CNS = tested on: SF-268 CNS
OVCAR-5 ovarian = tested on: OVCAR-5 ovarian
COLO 205 colon = tested on: COLO 205 colon
OVCAR-4 ovarian = tested on: OVCAR-4 ovarian

For Cn1c(=O)c(Oc2ccc(F)cc2)cc2cnc(NC3CCOCC3)nc21, the GI50 (HS 578T breast) was greater than 25 µM, the TGI (HS 578T breast) was greater than 25 µM and the GI50 (A498 renal) was 13.4 µM. It also gave a TGI (A498 renal) greater than 25 µM, a GI50 (NCI/ADR-RES ovarian) greater than 25 µM and a TGI (NCI/ADR-RES ovarian) greater than 25 µM. It also gave a GI50 (TK-10 renal) greater than 25 µM, a TGI (TK-10 renal) greater than 25 µM and a GI50 (SW-620 colon) greater than 25 µM. The TGI (SW-620 colon) was greater than 25 µM, the GI50 (HOP-92 NSCLC) was 4.72 µM and the TGI (HOP-92 NSCLC) was greater than 25 µM. The GI50 (CAKI-1 renal) was greater than 25 µM, the TGI (CAKI-1 renal) was greater than 25 µM and the GI50 (SNB-19 CNS) was greater than 25 µM. The TGI (SNB-19 CNS) was greater than 25 µM, the GI50 (SN12C renal) was greater than 25 µM and the TGI (SN12C renal) was greater than 25 µM. The GI50 (UACC-62 melanoma) was greater than 25 µM, the TGI (UACC-62 melanoma) was greater than 25 µM and the GI50 (ACHN renal) was greater than 25 µM. It also gave a TGI (ACHN renal) greater than 25 µM, a GI50 (HCT-116 colon) greater than 25 µM and a TGI (HCT-116 colon) greater than 25 µM. It also gave a GI50 (IGROV1 ovarian) greater than 25 µM, a TGI (IGROV1 ovarian) greater than 25 µM and a GI50 (CCRF-CEM leukemia) greater than 25 µM. The TGI (CCRF-CEM leukemia) was greater than 25 µM, the GI50 (MCF7 breast) was greater than 25 µM and the TGI (MCF7 breast) was greater than 25 µM. For the same molecule, the GI50 (HT29 colon) was greater than 25 µM, the TGI (HT29 colon) was greater than 25 µM and the GI50 (786-0 renal) was greater than 25 µM. The TGI (786-0 renal) was greater than 25 µM, the GI50 (M14 melanoma) was greater than 25 µM and the TGI (M14 melanoma) was greater than 25 µM. It also gave a GI50 (SK-MEL-5 melanoma) greater than 25 µM, a TGI (SK-MEL-5 melanoma) greater than 25 µM and a GI50 (SK-OV-3 ovarian) greater than 25 µM. For the same molecule, the TGI (SK-OV-3 ovarian) was greater than 25 µM, the GI50 (SR leukemia) was greater than 25 µM and the TGI (SR leukemia) was greater than 25 µM. The GI50 (MALME-3M melanoma) was greater than 25 µM, the TGI (MALME-3M melanoma) was greater than 25 µM and the GI50 (NCI-H460 lung) was greater than 25 µM. The TGI (NCI-H460 lung) was greater than 25 µM, the GI50 (SNB-75 CNS) was greater than 25 µM and the TGI (SNB-75 CNS) was greater than 25 µM. For the same molecule, the GI50 (DU-145 prostate) was greater than 25 µM, the TGI (DU-145 prostate) was greater than 25 µM and the GI50 (SF-539 CNS) was greater than 25 µM. For the same molecule, the TGI (SF-539 CNS) was greater than 25 µM, the GI50 (HL-60(TB) leukemia) was greater than 25 µM and the TGI (HL-60(TB) leukemia) was greater than 25 µM. For the same molecule, the GI50 (SK-MEL-2 melanoma) was greater than 25 µM, the TGI (SK-MEL-2 melanoma) was greater than 25 µM and the GI50 (MDA-MB-435) was greater than 25 µM. The TGI (MDA-MB-435) was greater than 25 µM, the GI50 (NCI-H23 lung) was greater than 25 µM and the TGI (NCI-H23 lung) was greater than 25 µM. For the same molecule, the GI50 (OVCAR-3 ovarian) was greater than 25 µM, the TGI (OVCAR-3 ovarian) was greater than 25 µM and the GI50 (SK-MEL-28 melanoma) was greater than 25 µM. For the same molecule, the TGI (SK-MEL-28 melanoma) was greater than 25 µM, the GI50 (PC-3 prostate) was greater than 25 µM and the TGI (PC-3 prostate) was greater than 25 µM. It also gave a GI50 (OVCAR-8 ovarian) greater than 25 µM, a TGI (OVCAR-8 ovarian) greater than 25 µM and a GI50 (RXF 393 renal) of 24.7 µM. It also gave a TGI (RXF 393 renal) greater than 25 µM, a GI50 (KM12 colon) greater than 25 µM and a TGI (KM12 colon) greater than 25 µM. It also gave a GI50 (BT-549 breast) greater than 25 µM, a TGI (BT-549 breast) greater than 25 µM and a GI50 (UACC-257 melanoma) greater than 25 µM. The TGI (UACC-257 melanoma) was greater than 25 µM, the GI50 (MDA-MB-231 breast) was greater than 25 µM and the TGI (MDA-MB-231 breast) was greater than 25 µM. For the same molecule, the GI50 (T-47D breast) was 22.2 µM, the TGI (T-47D breast) was greater than 25 µM and the GI50 (LOX IMVI melanoma) was greater than 25 µM. It also gave a TGI (LOX IMVI melanoma) greater than 25 µM, a GI50 (HCT-15 colon) greater than 25 µM and a TGI (HCT-15 colon) greater than 25 µM. For the same molecule, the GI50 (HCC-2998 colon) was greater than 25 µM, the TGI (HCC-2998 colon) was greater than 25 µM and the GI50 (UO-31 renal) was greater than 10.5 µM. The TGI (UO-31 renal) was greater than 18.6 µM, the GI50 (K-562 leukemia) was greater than 25 µM and the TGI (K-562 leukemia) was greater than 25 µM. It also gave a GI50 (U251 CNS) greater than 25 µM, a TGI (U251 CNS) greater than 25 µM and a GI50 (MOLT-4 leukemia) greater than 25 µM. It also gave a TGI (MOLT-4 leukemia) greater than 25 µM, a GI50 (SF-295 CNS) greater than 25 µM and a TGI (SF-295 CNS) greater than 25 µM. The GI50 (RPMI-8226 leukemia) was greater than 25 µM, the TGI (RPMI-8226 leukemia) was greater than 25 µM and the GI50 (HOP-62 NSCLC) was greater than 25 µM. It also gave a TGI (HOP-62 NSCLC) greater than 25 µM, a GI50 (NCI-H226 lung) greater than 17.1 µM and a TGI (NCI-H226 lung) greater than 25 µM. For the same molecule, the GI50 (A549 NSCLC) was greater than 25 µM, the TGI (A549 NSCLC) was greater than 25 µM and the GI50 (NCI-H522 lung) was greater than 25 µM. The TGI (NCI-H522 lung) was greater than 25 µM, the GI50 (SF-268 CNS) was greater than 25 µM and the TGI (SF-268 CNS) was greater than 25 µM. It also gave a GI50 (OVCAR-5 ovarian) greater than 25 µM, a TGI (OVCAR-5 ovarian) greater than 25 µM and a GI50 (COLO 205 colon) greater than 25 µM. It also gave a TGI (COLO 205 colon) greater than 25 µM, a GI50 (OVCAR-4 ovarian) greater than 25 µM and a TGI (OVCAR-4 ovarian) greater than 25 µM.
